For 17 compounds, pest or weed control and melting point results are on record in patent US8921360B2, “Heterobicycle-substituted azolyl benzene fungicides” (priority 2009, dated 2014).

The test system of one data set is Septoria nodorum. In words: Test D: wheat glume blotch, preventive spray on wheat seedlings. The class given is in vivo. Particulars: Parastagonospora nodorum, 216 h, wheat seedlings sprayed to run-off, inoculated next day, rated after 48 h + 7 days, read-out: Percentage Disease Control Test D. An excerpt: General protocol for preparing test suspensions for Tests A-G: the test compounds were first dissolved in acetone in an amount equal to 11% of the final volume and then suspended at the desired concentration (in ppm) in acetone and purified water (50/50 mix by volume) containing 250 ppm of the surfactant Trem® 014 (polyhydric alcohol esters). The resulting test suspensions were then used in Tests A-G. Spraying a 200 ppm test suspension to the point of run-off on the test plants was the equivalent of a rate of 800 g/ha. The test suspension was sprayed to the point of run-off on wheat seedlings. The following day the seedlings were inoculated with a spore suspension of Septoria nodorum (the causal agent of wheat glume blotch) and incubated in a saturated atmosphere at 20° C. for 48 h, and then moved to a growth chamber at 20° C. for 7 days, after which time disease ratings were visually made. Results for Tests A-G are given in Table A. In the Table, a rating of 100 indicates 100% disease control and a rating of 0 indicates no disease control (relative to the controls). A dash (-) indicates no test results. All results are for 200 ppm except where followed by an “*”, which indicates 40 ppm.

The test system of another data set is Botrytis cinerea. The data set can be described thus: Test F: tomato botrytis, preventive spray on tomato seedlings. Type of data set: in vivo. Particulars: Botrytis cinerea, topical, 120 h, tomato seedlings sprayed to run-off, inoculated next day, rated after 48 h + 3 days, read-out: Percentage Disease Control Test F. An excerpt: General protocol for preparing test suspensions for Tests A-G: the test compounds were first dissolved in acetone in an amount equal to 11% of the final volume and then suspended at the desired concentration (in ppm) in acetone and purified water (50/50 mix by volume) containing 250 ppm of the surfactant Trem® 014 (polyhydric alcohol esters). The resulting test suspensions were then used in Tests A-G. Spraying a 200 ppm test suspension to the point of run-off on the test plants was the equivalent of a rate of 800 g/ha. The test suspension was sprayed to the point of run-off on tomato seedlings. The following day the seedlings were inoculated with a spore suspension of Botrytis cinerea (the causal agent of tomato botrytis) and incubated in saturated atmosphere at 20° C. for 48 h, and then moved to a growth chamber at 27° C. for 3 additional days, after which time disease ratings were visually made. Results for Tests A-G are given in Table A. In the Table, a rating of 100 indicates 100% disease control and a rating of 0 indicates no disease control (relative to the controls). A dash (-) indicates no test results. All results are for 200 ppm except where followed by an “*”, which indicates 40 ppm.

For the compound `CC(=O)NCc1cc(-c2ccn(-c3ccc4c(c3)CCCO4)n2)ccc1Cl` [Compound 2, N-[[2-chloro-5-[1-(3,4-dihydro-2H-1-benzopyran-6-yl)-1H-pyrazol-3-yl]-phenyl]methyl]acetamide], the pest or weed control at 200 ppm in the data set with Septoria nodorum was 100%; in the data set on Botrytis cinerea, 0%.

Regarding `O=CNCc1cc(-c2ccn(-c3ccc4c(c3)CCCO4)n2)ccc1Cl` [Compound 3, N-[[2-chloro-5-[1-(3,4-dihydro-2H-1-benzopyran-6-yl)-1H-pyrazol-3-yl]-phenyl]methyl]formamide], the pest or weed control at 200 ppm stood at 99% in the data set on Septoria nodorum and 0% in the data set with Botrytis cinerea.

Consider `CNC(=O)NCc1cc(-c2ccn(-c3ccc4c(c3)CCCO4)n2)ccc1Cl` [Compound 4, N-[[2-chloro-5-[1-(3,4-dihydro-2H-1-benzopyran-6-yl)-1H-pyrazol-3-yl]-phenyl]methyl]-N′-methylurea], for which the pest or weed control at 200 ppm was found to be 82% in the data set on Septoria nodorum and 0% with Botrytis cinerea.

For the compound `COC(=O)NCc1cc(-n2ccc(-c3ccc4c(c3)CCCO4)n2)ccc1Cl` [Compound 5, methyl N-[[2-chloro-5-[3-(3,4-dihydro-2H-1-benzopyran-6-yl)-1H-pyrazol-1-yl]phenyl]methyl]carbamate], the results for the pest or weed control at 200 ppm with Septoria nodorum and in the data set with Botrytis cinerea were 100% and 98%, respectively.

Take `COC(=O)NCc1cc(-n2ccc(-c3ccc4c(c3)OCO4)n2)ccc1Cl` [Compound 6, methyl N-[[5-[3-(1,3-benzodioxol-5-yl)-1H-pyrazol-1-yl]-2-chlorophenyl]-methyl]carbamate]: the pest or weed control at 200 ppm turned out to be 100% in the data set on Septoria nodorum and 91% in the data set on Botrytis cinerea.

`COC(=O)NCc1cc(-n2ccc(-c3ccc4c(c3)OCCO4)n2)ccc1Cl` [Compound 7, methyl N-[[2-chloro-5-[3-(2,3-dihydro-1,4-benzodioxin-6-yl)-1H-pyrazol-1-yl]-phenyl]methyl]carbamate]: the pest or weed control at 200 ppm is 100% with Septoria nodorum and 98% in the data set on Botrytis cinerea.

`CC(=O)NCc1cc(-n2ccc(-c3ccc4c(c3)CCCO4)n2)ccc1Cl` [Compound 8, N-[[2-chloro-5-[3-(3,4-dihydro-2H-1-benzopyran-6-yl)-1H-pyrazol-1-yl]phenyl]methyl]acetamide]: the results for the pest or weed control at 200 ppm with Septoria nodorum and in the data set on Botrytis cinerea were 100% and 73%, respectively.

Regarding `CNC(=O)NCc1cc(-n2ccc(-c3ccc4c(c3)CCCO4)n2)ccc1Cl` [Compound 9, N-[[2-chloro-5-[3-(3,4-dihydro-2H-1-benzopyran-6-yl)-1H-pyrazol-1-yl]phenyl]methyl]-N′-methylurea], the pest or weed control at 200 ppm in the data set on Septoria nodorum is 100%; in the data set with Botrytis cinerea, 0%.

With `COC(=O)NCc1cc(-n2ccc(-c3ccc4c(c3)CCCO4)n2)ccc1F` [Compound 11, methyl N-[[5-[3-(3,4-dihydro-2H-1-benzopyran-6-yl)-1H-pyrazol-1-yl]-2-fluorophenyl]methyl]carbamate], the melting point (commonly the temperature of the solid-liquid transition) lay within 140 to 144 °C. Besides, in the data set on Septoria nodorum, the pest or weed control at 200 ppm came to 100%. Besides, the pest or weed control at 200 ppm in the data set on Botrytis cinerea came out at 0%.

`COC(=O)NCc1cc(-c2ccn(-c3ccc4c(c3)CCCO4)n2)ccc1F` [Compound 12, methyl N-[[5-[1-(3,4-dihydro-2H-1-benzopyran-6-yl)-1H-pyrazol-3-yl]-2-fluorophenyl]methyl]carbamate] registered a melting point of 134 to 138 °C. Further, the pest or weed control at 200 ppm with Septoria nodorum worked out at 100%. In addition, the pest or weed control at 200 ppm in the data set with Botrytis cinerea is 0%.

`COC(=O)NCc1cc(-c2ccn(-c3ccc4c(c3)CCCO4)n2)ccc1C` [Compound 20, methyl N-[[5-[1-(3,4-dihydro-2H-1-benzopyran-6-yl)-1H-pyrazol-3-yl]-2-methylphenyl]methyl]carbamate] gave a melting point of 161 to 162 °C. Besides, the pest or weed control at 200 ppm in the data set on Septoria nodorum came out at 100%. In addition, the pest or weed control at 200 ppm in the data set on Botrytis cinerea was determined as 95%.

On to `COC(=O)NCc1cc(-c2ccn(-c3ccc4c(c3)C=C(C(=O)OC)CO4)n2)ccc1Cl` [Compound 23, methyl 6-[3-[4-chloro-3-[[(methoxycarbonyl)amino]methyl]phenyl]-1H-pyrazol-1-yl]-2H-1-benzopyran-3-carboxylate], for which the melting point was in the range of 185 to 187 °C. For the same compound, in the data set on Septoria nodorum, the pest or weed control at 200 ppm came to 73%. Moreover, in the data set with Botrytis cinerea, the pest or weed control at 200 ppm was found to be 0%.

`COC(=O)NCc1cc(-c2ccn(-c3ccc4c(c3)C=C(C(=O)O)CO4)n2)ccc1Cl` [Compound 24, 6-[3-[4-chloro-3-[[(methoxycarbonyl)amino]methyl]phenyl]-1H-pyrazol-1-yl]-2H-1-benzopyran-3-carboxylic acid] returned a melting point of 245 to 247 °C. Besides, the pest or weed control at 200 ppm in the data set on Septoria nodorum is 89%. In the data set with Botrytis cinerea, the pest or weed control at 200 ppm was found to be 0%.

In the case of `COC(=O)NCc1cc(-n2ccc(-c3ccc4c(c3)CCCO4)n2)ccc1C` [Compound 25, methyl N-[[5-[3-(3,4-dihydro-2H-1-benzopyran-6-yl)-1H-pyrazol-1-yl]-2-methylphenyl]methyl]carbamate], the melting point lay in the range of 152 to 154 °C. In addition, the pest or weed control at 200 ppm in the data set with Septoria nodorum is 100%. Further, the pest or weed control at 200 ppm with Botrytis cinerea turned out to be 0%.

`COC(=O)NCc1cc(-c2ccn(-c3ccc4c(c3)CC3(CO4)OCCO3)n2)ccc1Cl` [Compound 28, methyl N-[[2-chloro-5-(1-spiro[2H-1-benzopyran-3(4H), 2′-[1,3]dioxolan]-6-yl-1H-pyrazol-3-yl)phenyl]methyl]carbamate]: the melting point was in the range of 70 to 73 °C. For the same compound, the pest or weed control at 200 ppm in the data set on Septoria nodorum turned out to be 99%. For the same compound, in the data set with Botrytis cinerea, the pest or weed control at 200 ppm was 0%.

In the case of `COC(=O)NCc1cc(-c2ccn(-c3ccc4c(c3)CC(=O)CO4)n2)ccc1Cl` [Compound 29, methyl N-[[2-chloro-5-[1-(3,4-dihydro-3-oxo-2H-1-benzopyran-6-yl)-1H-pyrazol-3-yl]phenyl]methyl]carbamate], the melting point was 104 to 106 °C. Further, the pest or weed control at 200 ppm with Septoria nodorum stood at 99%. Moreover, the pest or weed control at 200 ppm with Botrytis cinerea was found to be 0%.

`COC(=O)NCc1cc(-c2ccn(-c3ccc4c(c3)CC(O)CO4)n2)ccc1Cl` (stereo not shown) [Compound 30, methyl N-[[2-chloro-5-[1-(3,4-dihydro-3-hydroxy-2H-1-benzopyran-6-yl)-1H-pyrazol-3-yl]phenyl]methyl]carbamate] registered a melting point of 136 to 138 °C. In the data set with Septoria nodorum, the pest or weed control at 200 ppm came to 99%. Further, the pest or weed control at 200 ppm with Botrytis cinerea was determined as 0%.
